Data reported in ChEMBL document CHEMBL1201862, “PubChem BioAssay data set” (2004).
Calls of active or inactive are those of the source. No stated cut-off is given here; in the data, actives have a measured IC50 and inactives only a lower limit.

Target: Envelope glycoprotein gp160 (Human immunodeficiency virus 1, UniProt Q6QLK5)
Assay: inhibitors of HIV fusion peptide binding, primary screen, biochemical, uHTS, fluorescence dequenching (AID 1986)

Envelope glycoprotein gp160, sequence (Q6QLK5 whole entry, the tested form may be a part): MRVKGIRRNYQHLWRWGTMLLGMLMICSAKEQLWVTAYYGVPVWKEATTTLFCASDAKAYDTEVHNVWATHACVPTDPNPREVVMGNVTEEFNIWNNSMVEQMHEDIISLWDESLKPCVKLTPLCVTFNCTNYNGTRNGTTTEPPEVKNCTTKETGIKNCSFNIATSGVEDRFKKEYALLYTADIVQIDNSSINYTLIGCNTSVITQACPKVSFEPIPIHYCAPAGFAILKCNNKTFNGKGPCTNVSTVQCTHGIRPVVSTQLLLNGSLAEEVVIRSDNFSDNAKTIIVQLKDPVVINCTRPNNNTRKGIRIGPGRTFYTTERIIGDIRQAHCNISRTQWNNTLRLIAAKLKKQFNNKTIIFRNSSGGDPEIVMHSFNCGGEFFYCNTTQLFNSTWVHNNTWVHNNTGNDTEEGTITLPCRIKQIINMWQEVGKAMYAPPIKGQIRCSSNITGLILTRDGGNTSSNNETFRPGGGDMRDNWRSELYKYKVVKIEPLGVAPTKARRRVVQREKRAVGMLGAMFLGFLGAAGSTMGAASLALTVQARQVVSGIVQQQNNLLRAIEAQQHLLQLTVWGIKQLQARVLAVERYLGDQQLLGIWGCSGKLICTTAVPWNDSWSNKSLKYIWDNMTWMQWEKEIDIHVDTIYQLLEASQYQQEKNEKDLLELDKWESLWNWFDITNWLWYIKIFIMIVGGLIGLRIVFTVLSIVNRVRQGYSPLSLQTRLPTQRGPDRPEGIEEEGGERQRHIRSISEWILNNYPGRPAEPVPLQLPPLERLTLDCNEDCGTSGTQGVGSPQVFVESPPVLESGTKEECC

**Q.** For COc1ccc(C(=O)/C=C/c2cccc(OCc3ccccc3)c2)cc1CSCC(=O)O, which IC50 is on record?
**A.** 29.2 µM (active)
